Experimental data reported in patent US20250114367A1, “METHOD OF TREATING HAIR LOSS DISORDERS” (Sun Pharmaceutical Industries, Inc., priority 2023, published 2025).
Where two headings read alike, the source gives them in different places.

Tests used:
Format in all cases: in vivo, human
[1] = system: subjects with AA; assay: SALT change at week 8, 8 mg BID versus 16 mg once daily
Method: A decrease in SALT score indicates increased hair growth. Decreases in the LS mean SALT scores were initially observed at Week 4. […] At week 8, the LS mean change from baseline SALT score was higher in subjects treated with deuruxolitinib 8 mg BID (8.6%) than in subjects treated with 16 mg once daily (QD) (2.7%).

[2] = Renal impairment study: PK after a single 12 mg oral dose of CTP-543; details: for Tmax / AUC(0-t) / AUC(0-inf) / Cmax / Vd/F / half-life: human, plasma, po, 12 mg; for Tmax / AUC(0-t) / AUC(0-inf) / Cmax / Vd/F / half-life / CL/F (geometric mean) / Clast (geometric mean): single 12 mg oral dose of CTP-543, outlier excluded; for AUC(0-t): read-out: AUC0-Tlast (geometric mean); for AUC(0-inf): read-out: AUC0-inf (geometric mean); for Cmax: read-out: Cmax (geometric mean); for Vd/F: read-out: Vz/F (geometric mean); for half-life: read-out: terminal elimination half-life (geometric mean) (converted)
Source text: The study enrolled 8 subjects in the normal renal function cohort, and 8 subjects in the moderate impaired renal function cohort.
The primary endpoint of this study was single dose PK exposure parameters: Cmax, AUC(0-Tlast), and AUC(0-∞).
The secondary endpoints of this study were: • Adverse Events, clinical laboratory findings, physical examinations, ECGs, and vital signs. • Other PK parameters, such as, but not limited to: Tmax, λz, t1/2, CL/F, and Vz/F.
All subjects had samples collected for PK.
PK parameters were determined using non-compartmental analysis (NCA) methods based on individual plasma concentration-time data for all PK analytes.

[3] = system: adult subjects with moderate to severe AA; assay: Phase III trial: Brigham Eyebrow Tool for Alopecia (BETA)
Method: The BETA is a clinician-rated scale developed by dermatologists at Brigham and Women's Hospital that assesses the total eyebrow hair present (Tkachenko, E, et al., Brigham Eyebrow Tool for Alopecia: A Reliable Assessment of Eyebrow Alopecia Areata, Journal of Investigative Dermatology Symposium Proceedings (2020) 20, S41-S44). The BETA is calculated based on hair density (range 0 to 3) and surface area of each individual eyebrow. The BETA score is the sum of the right and left eyebrow scores (range 0 (absent) to 6). An expert panel of certified raters at Brigham and Women's Hospital performed central readings based on photographs of the eyebrows provided by the study sites and determined a score for each subject with eyebrow involvement following each visit where an assessment of eyebrow hair presence was assessed. The BETA was performed at baseline, Week 12, and Week 24. If a subject was unable to attend an in-person clinic visit due to COVID-19, the BETA may not have been performed due to the inability to take photographs of the eyebrows.
(§1) A Phase III trial was conducted to assess the efficacy and safety of CTP-543 in adult subjects with moderate to severe AA. Approximately 440 adult male and female subjects 18 to 65 years of age, inclusive, with moderate to severe AA participated in the study. Subjects with definitive diagnosis of AA, and at least 50% hair loss, as defined by a SALT score ≥50, who met all of the inclusion criteria and none of the exclusion criteria participated in the study.
The Screening Period lasted up to 28 days prior to initiation of study drug. […] Randomization was stratified by scalp hair loss into 1 of the following 2 categories: 1) partial scalp hair loss (SALT ≥50 and <95), 2) complete or near complete scalp hair loss (SALT ≥95). […]

[4] = system: adult subjects with moderate to severe AA; assay: Phase III trial: Clinical Global Impression of Severity (CGI-S)
Method: The CGI-S was assessed by the investigator and considered the severity of the subject's alopecia at the time of assessment. The investigator selected 1 of 7 numeric choices representing “Among the most extreme hair loss” to “Normal, no hair loss.” To reduce variability, 1 rater was to perform the CGI-S assessment for the subject. The definitions of the numeric choices is as follows: 1=normal, no hair loss; 2=borderline hair loss; 3=mild hair loss; 4=moderately hair loss; 5=marked hair loss; 6=severe hair loss; 7=among the most extreme hair loss.
as §1
The Screening Period lasted up to 28 days prior to initiation of study drug. […] Randomization was stratified by scalp hair loss into 1 of the following 2 categories: 1) partial scalp hair loss (SALT ≥50 and <95), 2) complete or near complete scalp hair loss (SALT ≥95).
Additional secondary efficacy endpoints included the following: • Relative change in SALT scores from baseline at Weeks 4, 8, 12, 16, 20, and 24. • Percentage of responders (defined as “much improved” or “very much improved”) using the Clinical Global Impression of Improvement (CGI-I) at Weeks 12, 16, 20, and 24. • Percentage of responders (defined as “much improved” or “very much improved”) using the Patient Global Impression of Improvement (PGI-I) at Weeks 12, 16, 20, and 24. • Change from baseline in the Clinical Global Impression of Severity (CGI-S) at Weeks 12, 16, 20, and 24. • Change from baseline in the Patient Global Impression of Severity (PGI-S) at Weeks 12, 16, 20, and 24. • Change from baseline on the Brigham Eyebrow Tool for Alopecia (BETA) score at Weeks 12 and 24. • Change from baseline on the Brigham Eyelash Tool for Alopecia (BELA) score at Weeks 12 and 24. • Percentage of subjects achieving at least a 75% relative reduction in SALT score from baseline at Weeks 12 and 24. • Percentage of subjects achieving at least a 90% relative reduction in SALT score from baseline at Weeks 12 and 24. • Percentage of responders (defined as “satisfied” or “very satisfied”) on the SPRO scale at Weeks 12, 16, and 20. • Change from baseline in the SPRO scale at Weeks 12, 16, 20, and 24. • Percentage of subjects achieving a ≥2-point change from baseline in the SPRO scale at Weeks 12, 16, 20, and 24. • Change from baseline on the individual items of the Hair Quality Patient Reported Outcome (QPRO) scale at Weeks 12, 16, 20, and 24. • Change from baseline in the depression scale of the Hospital Anxiety and Depression Scale (HADS) at Week 24. • Change from baseline in the anxiety scale of the HADS at Week 24. • Percentage of subjects achieving an absolute SALT score of ≤20 at Week 4. • Percentage of subjects achieving an absolute SALT score of ≤10 at Week 24
A decrease in CGI-I score indicates improvement (impression is decreased severity). Similar to other endpoints, decreases favoring the active group over placebo were observed beginning at Week 12 and continuing through Week 24, and the magnitude of the differences increased at each subsequent time point. […] Detailed data for each time point are described below.

[5] = compared to healthy control subjects
[6] = moderate renal impairment N = 7

In the case of `[2H]C1([2H])C([C@@H](CC#N)n2cc(-c3ncnc4[nH]ccc34)cn2)C([2H])([2H])C([2H])([2H])C1([2H])[2H]` [CTP-543, (R)-3-(4-(7H-pyrrolo[2,3-d]pyrimidin-4-yl)-1H-pyrazol-1-yl)-3-(cyclopentyl-2,2,3,3,4,4,5,5-d8) propanenitrile], the “LS mean change from baseline SALT score” value ([1]; 8 mg BID) is reported as 8.6%, the “LS mean change from baseline SALT score” value ([1]; 16 mg once daily (QD)) is reported as 2.7% and the “effect of moderate renal impairment on Cmax” value [2, 5] is reported as “without altering Cmax”. The “increase of plasma AUC by moderate renal impairment” value [2, 5] was “approximately 24%”, the Tmax [2, 6] was 0.5 h and the AUC(0-t) [2, 6] was 1040 ng·h/mL. It also gave an AUC(0-inf) [2, 6] of 1050 ng·h/mL, a Cmax [2, 6] of 207 ng/mL and a Vd/F [2, 6] of 72.1 L. For the same compound, the half-life [2, 6] was 4.36 h, the Tmax ([2]; normal renal function N = 8) was 0.71 h and the AUC(0-t) ([2]; normal renal function N = 8) was 836 ng·h/mL. The AUC(0-inf) ([2]; normal renal function N = 8) was 843 ng·h/mL, the Cmax ([2]; normal renal function N = 8) was 199 ng/mL and the Vd/F ([2]; normal renal function N = 8) was 85.6 L. For the same compound, the half-life ([2]; normal renal function N = 8) was 4.17 h, the “CL/F (geometric mean)” value [2, 6] was 11.3 L/h and the “Clast (geometric mean)” value [2, 6] was 0.977 ng/mL. The “CL/F (geometric mean)” value ([2]; normal renal function N = 8) was 14.2 L/h, the “Clast (geometric mean)” value ([2]; normal renal function N = 8) was 0.698 ng/mL and the “BETA score, LS mean change from baseline” value ([3]; Week 12, 8 mg BID) was 0.8. For the same compound, the “BETA score, LS mean change from baseline” value ([3]; Week 12, 12 mg BID) was 0.8, the “BETA score, LS mean change from baseline” value ([3]; Week 24, 8 mg BID) was 1.1 and the “BETA score, LS mean change from baseline” value ([3]; Week 24, 12 mg BID) was 1.4. The “CGI-S, LS mean change from baseline” value ([4]; Week 12, 8 mg BID) was −1.3, the “CGI-S, LS mean change from baseline” value ([4]; Week 12, 12 mg BID) was −1.4 and the “CGI-S, LS mean change from baseline” value ([4]; Week 16, 12 mg BID) was −1.8. The “CGI-S, LS mean change from baseline” value ([4]; Week 20, 8 mg BID) was −1.8, the “CGI-S, LS mean change from baseline” value ([4]; Week 20, 12 mg BID) was −2.1 and the “CGI-S, LS mean change from baseline” value ([4]; Week 24, 8 mg BID) was −2.1. The “CGI-S, LS mean change from baseline” value ([4]; Week 24, 12 mg BID) was −2.4.
